According to EPA's ToxValDB 9.5 (doi:10.2903/j.efsa.2016.4504):

Tests used:
[1] = test system: Rattus norvegicus
[2] = test system: Folsomia candida; details: chronic/long-term
[3] = test system: Neomysis kadiakensis; details: chronic/long-term; duration: 32 days; reproduction
[4] = test system: Canidae; details: chronic; oral; Dog Other; gross pathology
[5] = test system: Colinus virginianus; details: oral; for LEC: diet
[6] = test system: Cyprinodon variegatus
[7] = test system: Apis mellifera; details: acute, mortality
[8] = test system: Tagia sp.
[9] = test system: Aphidius rhopalosiphi; assay: LR50; higher = less toxic; details: not reported; mortality
[10] = short-term, duration: 28 days, oral, diet, no effects

SMILES | NOAEL [1, 10] [mg/kg-day] | NOEC [2] [mg/kg] | NOEC [3] [mg/L] | NOAEL [4] [mg/kg-day] | LEL ([5]; acute) [mg/kg-day] | LEC ([5]; chronic) [mg/kg-day] | LEC ([5]; short-term) [mg/kg-day] | LD50 ([1]; acute, oral, mortality) [mg/kg] | NOAEL ([1]; reproduction developmental, other) [mg/kg-day] | LC50 ([6]; acute, duration: 96 hours, mortality) [µg/mL] | NOEC ([6]; chronic/long-term, duration: 35 days, growth) [mg/L] | LD50 ([7]; dermal) [µg/piece] | LD50 ([7]; oral, unspecified) [µg/piece] | LC50 ([8]; acute) [mg/kg] | NOEC ([8]; chronic/long-term) [mg/kg] | LR50 [9] [g/ha]
O=C(O)c1cc(C(F)(F)F)nn1[C@@H]1O[C@H](CO)[C@@H](O)[C@H](O)[C@H]1O | 1160 |  |  |  |  |  |  |  |  |  |  |  |  |  |  | 
O=C(O)c1cc(C(F)(F)F)[nH]n1 [5-(Trifluoromethyl)-1H-pyrazole-3-carboxylic acid] | 1160 |  |  |  |  |  |  |  |  |  |  |  |  |  |  | 
Cc1cc(C(F)(F)F)nn1CC(=O)N1CCC(c2nc(C3=NOC(c4c(F)cccc4F)C3)cs2)CC1 (configuration not stated) [Oxathiapiprolin] |  | 12.5 | 0.058 | 13.6 | > 4250 | 107 | > 1280 | > 5000 | 86.4 | > 0.65 | 0.34 | > 100 | > 40.3 | > 500 | 15.4 | 116
